ChEMBL document CHEMBL1201862, “PubChem BioAssay data set” (2004)
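Results reflect a 48-hour exposure of cells in 96-well plates to compound at five concentrations. GI50 marks 50% less growth.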 Active and inactive are the calls of the source. Rule as the data show it: active = GI50 up to about 1.1 µM and inactive = higher.

Key:
Experiment in all cases: NCI anticancer screen, dose series, 48 h
K562 = system: K562
KM12 = system: KM12
OVCAR-3 = system: OVCAR-3
SK-MEL-28 = system: SK-MEL-28
SK-MEL-2 = system: SK-MEL-2
UO-31 = system: UO-31
A498 = system: A498
SN12C = system: SN12C
A549 = system: A549
MDA-MB-231 = system: MDA-MB-231
MCF7 = system: MCF7
BT-549 = system: BT-549
CCRF-CEM = system: CCRF-CEM
RXF 393 = system: RXF 393
SNB-75 = system: SNB-75
786-0 = system: 786-0
HL-60 = system: HL-60
SF-295 = system: SF-295
NCI/ADR-RES = system: NCI/ADR-RES
NCI-H522 = system: NCI-H522

SMILES	GI50 (K562)	GI50 (KM12)	GI50 (OVCAR-3)	GI50 (SK-MEL-28)	GI50 (SK-MEL-2)	GI50 (UO-31)	GI50 (A498)	GI50 (SN12C)	GI50 (A549)	GI50 (MDA-MB-231)	GI50 (MCF7)	GI50 (BT-549)	GI50 (CCRF-CEM)	GI50 (RXF 393)	GI50 (SNB-75)	GI50 (786-0)	GI50 (HL-60)	GI50 (SF-295)	GI50 (NCI/ADR-RES)	GI50 (NCI-H522)
Cc1cc2c3c(c1)S(=O)(=O)c1cc(Cl)ccc1N3CCC2	96.8 µM (inactive)	> 100 µM (inactive)	> 100 µM (inactive)	> 100 µM (inactive)	> 100 µM (inactive)	> 100 µM (inactive)	> 100 µM (inactive)	> 100 µM (inactive)	> 100 µM (inactive)	83.9 µM (inactive)	> 100 µM (inactive)	> 100 µM (inactive)	> 100 µM (inactive)	55.2 µM (inactive)	58.5 µM (inactive)	82.2 µM (inactive)	> 100 µM (inactive)	56 µM (inactive)	> 100 µM (inactive)	
Cc1ccc(S(=O)(=O)NC(=O)C2C(=O)CC3(CCCCC3)CC2=O)cc1	38.1 µM (inactive)	19.6 µM (inactive)	29 µM (inactive)			22.4 µM (inactive)	28.4 µM (inactive)	30.8 µM (inactive)	33.3 µM (inactive)	36.1 µM (inactive)	22.8 µM (inactive)	27.5 µM (inactive)	27.3 µM (inactive)	38.3 µM (inactive)	51.4 µM (inactive)	25.9 µM (inactive)	29.5 µM (inactive)	22 µM (inactive)	19.7 µM (inactive)	23.8 µM (inactive)
O=c1[nH]nc(Cc2ccc(Cl)cc2)n1/N=C\c1ccc(/C=N/n2c(Cc3ccc(Cl)cc3)n[nH]c2=O)cc1	> 100 µM (inactive)	> 100 µM (inactive)	81.7 µM (inactive)	> 100 µM (inactive)	38.5 µM (inactive)	> 100 µM (inactive)	> 100 µM (inactive)	57.3 µM (inactive)	> 100 µM (inactive)	17.2 µM (inactive)	> 100 µM (inactive)	> 100 µM (inactive)	> 100 µM (inactive)	29.7 µM (inactive)		13.3 µM (inactive)	> 100 µM (inactive)	> 100 µM (inactive)	90.2 µM (inactive)	> 100 µM (inactive)
CC1(C)O[C@H]([C@H](O)c2nnc3ccc(Cl)nn23)[C@@H]([C@H]2COC(C)(C)O2)O1		> 100 µM (inactive)	> 100 µM (inactive)	> 100 µM (inactive)	> 100 µM (inactive)		> 100 µM (inactive)	> 100 µM (inactive)	> 100 µM (inactive)	> 100 µM (inactive)	> 100 µM (inactive)	> 100 µM (inactive)	> 100 µM (inactive)	> 100 µM (inactive)		> 100 µM (inactive)	> 100 µM (inactive)	> 100 µM (inactive)	> 100 µM (inactive)	> 100 µM (inactive)
Cc1csc2c(=O)n(C3OC(CO)C(O)C3O)c(=O)[nH]c12 (configuration not stated)	> 100 µM (inactive)	> 100 µM (inactive)	> 100 µM (inactive)	> 100 µM (inactive)		> 100 µM (inactive)	> 100 µM (inactive)	> 100 µM (inactive)	> 100 µM (inactive)	> 100 µM (inactive)	> 100 µM (inactive)	> 100 µM (inactive)	> 100 µM (inactive)	> 100 µM (inactive)	> 100 µM (inactive)	> 100 µM (inactive)	> 100 µM (inactive)	> 100 µM (inactive)	> 100 µM (inactive)	> 100 µM (inactive)
C=C(C1=CC(=O)C(C)(C)O1)[C@@H]1CC=C([C@@H]2CC[C@H]3[C@@]2(C)CC[C@H]2C(C)(C)C(=O)[C@H](OC(=O)CC(C)(O)CC(=O)O)C[C@]32C)[C@H](O)O1 (some centres not stated)	25.7 µM (inactive)	14.1 µM (inactive)	11.9 µM (inactive)		12.9 µM (inactive)	13.6 µM (inactive)	13 µM (inactive)	15.3 µM (inactive)	17.6 µM (inactive)	17.4 µM (inactive)	9.84 µM (inactive)	2.06 µM (inactive)	2.19 µM (inactive)	0.106 µM (active)		11.1 µM (inactive)	17.7 µM (inactive)	36.4 µM (inactive)	19 µM (inactive)	11.4 µM (inactive)
CCCC(=O)Nc1cc(/C=C/C(=O)N2CC(CCl)c3ccc([N+](=O)[O-])cc32)n(C)c1 (configuration not stated)	> 100 µM (inactive)	19.5 µM (inactive)	> 100 µM (inactive)	> 100 µM (inactive)	> 100 µM (inactive)	> 100 µM (inactive)	< 0.01 µM (active)	> 100 µM (inactive)	58.3 µM (inactive)	21.6 µM (inactive)	68.7 µM (inactive)	4.07 µM (inactive)	0.568 µM (active)	> 100 µM (inactive)	> 100 µM (inactive)	62.4 µM (inactive)		44.1 µM (inactive)	30.7 µM (inactive)	28.8 µM (inactive)
CCOC(=O)C1=CC(C)(C(=O)OCC)Nc2c(nc(N)[nH]c2=O)N1 (configuration not stated)	> 10 µM (inactive)	> 10 µM (inactive)	> 10 µM (inactive)	> 10 µM (inactive)	> 10 µM (inactive)	> 10 µM (inactive)	> 10 µM (inactive)	> 10 µM (inactive)	> 10 µM (inactive)	> 10 µM (inactive)	> 10 µM (inactive)	7.31 µM (inactive)	> 10 µM (inactive)	> 10 µM (inactive)	> 10 µM (inactive)	> 10 µM (inactive)		> 10 µM (inactive)	> 10 µM (inactive)	> 10 µM (inactive)
N=c1oc2c(Cl)cc(Cl)cc2cc1C(=O)Nc1ccccn1	71 µM (inactive)	13.9 µM (inactive)	24.6 µM (inactive)	> 100 µM (inactive)	42.7 µM (inactive)	59 µM (inactive)	40.1 µM (inactive)	99.3 µM (inactive)	44.4 µM (inactive)	69.2 µM (inactive)	29.2 µM (inactive)	41.4 µM (inactive)	22 µM (inactive)	19.8 µM (inactive)	14.3 µM (inactive)	27.5 µM (inactive)	> 100 µM (inactive)	54.7 µM (inactive)	66.4 µM (inactive)	
O=C(c1ccc(Cl)cc1)N1CCN=C1c1cc2ccccc2c2ccccc12	27.7 µM (inactive)	15.8 µM (inactive)	17.6 µM (inactive)	15.5 µM (inactive)	15.6 µM (inactive)	16.9 µM (inactive)	15.4 µM (inactive)	16.9 µM (inactive)	15.9 µM (inactive)	16.2 µM (inactive)	17.7 µM (inactive)	19 µM (inactive)	27.4 µM (inactive)	16.1 µM (inactive)	12.4 µM (inactive)	16.7 µM (inactive)	21.8 µM (inactive)	16.6 µM (inactive)	15.6 µM (inactive)	
COc1cc2c(cc1OC)C13CC[N+]4(C)CC5=CCOC6CC(=O)N2C1C6C5CC34[O-] (configuration not stated)	> 100 µM (inactive)	> 100 µM (inactive)	> 100 µM (inactive)	> 100 µM (inactive)		> 100 µM (inactive)	> 100 µM (inactive)	> 100 µM (inactive)	> 100 µM (inactive)	> 100 µM (inactive)	> 100 µM (inactive)	> 100 µM (inactive)	> 100 µM (inactive)	> 100 µM (inactive)	> 100 µM (inactive)	> 100 µM (inactive)	> 100 µM (inactive)	> 100 µM (inactive)	> 100 µM (inactive)	> 100 µM (inactive)
CC(C)(C)OC(=O)N(CCCN)CCCCN	> 100 µM (inactive)	> 100 µM (inactive)	> 100 µM (inactive)	> 100 µM (inactive)	> 100 µM (inactive)	> 100 µM (inactive)	> 100 µM (inactive)	> 100 µM (inactive)	> 100 µM (inactive)	0.0673 µM (active)	> 100 µM (inactive)	> 100 µM (inactive)	> 100 µM (inactive)	> 100 µM (inactive)		> 100 µM (inactive)	> 100 µM (inactive)	> 100 µM (inactive)	> 100 µM (inactive)	> 100 µM (inactive)
CC(=O)c1nc2ccccc2n1CC(=O)c1ccc([N+](=O)[O-])cc1	5.5 µM (inactive)	5.46 µM (inactive)	13.5 µM (inactive)	52.6 µM (inactive)		14.9 µM (inactive)	55.2 µM (inactive)	17.8 µM (inactive)	11.4 µM (inactive)	26.1 µM (inactive)	16.7 µM (inactive)	12.6 µM (inactive)	9.84 µM (inactive)	23.8 µM (inactive)	35.3 µM (inactive)	3.47 µM (inactive)	13.8 µM (inactive)	17.7 µM (inactive)	13.4 µM (inactive)	2.93 µM (inactive)
CCOc1cc2c(OCc3ccccc3)cc3c4cc(OC)c(OC)cc4c[n+](C)c3c2cc1OC	1.18 µM (inactive)	1.15 µM (inactive)	1.06 µM (active)	1.36 µM (inactive)	1.22 µM (inactive)	25.3 µM (inactive)	22.2 µM (inactive)	0.471 µM (active)	4.82 µM (inactive)	2.29 µM (inactive)	0.671 µM (active)	0.789 µM (active)	0.494 µM (active)	2.4 µM (inactive)	0.442 µM (active)	2.74 µM (inactive)		8.57 µM (inactive)	> 100 µM (inactive)	0.391 µM (active)
